Laboratory results published in US20060166905A1, “Aivlosin for the treatment of disease due to brachyspira pilosicoli or ornithobacterium rhinotracheale” (ECO Animal Health, LTD., priority 2003, published 2006).
Values after ≈ are worked out from the molar mass of the structure shown. Read-outs that look alike come from different tables or passages of the source.

Legend:
Format in all cases: cell-based
Brachyspira pilosicoli = experiment: MIC of aivlosin by antibiotic dilution method in agar plates
Protocol: Determination of Minimum Inhibitory Concentration (MIC) of Aivlosin Against Brachyspira pilosicoli
(§1) The MIC of acetyl isovaleryltylosin was determined against 5 field strains of Brachyspira pilosicoli isolated from different pig populations in various parts of England using an antibiotic dilution method. Four replicates of 0.2 ml of each isolate were inoculated into agar plates prepared with antibiotic concentrations from 0.78 to 200 μg/ml. A strain of Brachyspira hyodysenteriae (P18A), for which the MIC for acetyl isovaleryltylosin was already known, was used as a control.

[1] = test system: Ornithobacterium rhinotracheale; experiment: MIC test, twofold dilution in serum broth; conditions: for MIC: Ornithobacterium rhinotracheale, read-out: concentration that inhibited the growth (MIC)
Protocol: Testing of Aivlosin and Tilmicosin (Pulmotil) Against Ornithobacterium rhinotracheale Using the MIC (Minimum Inhibitory Concentration) Test
The following antibiotics were each tested against four isolates of Ornithobacterium rhinotracheale (OR):
The antibiotics were tested against the following isolates of OR:
The concentration needed of each antibiotic was calculated according to its active ingredient.
The four freeze dried bacterial isolates of Ornithobacterium rhinotracheale were reconstituted, inoculated into 10 ml serum broth (supplied by OBP, code 655) and incubated at 37° C. for 48 hours. After incubation the optical density (OD) of each culture was read at 540 nm. To verify purity the cultures were plated out onto Blood Tryptose agar plates, incubated at 37° C., using 5 % CO2 conditions, for 48 hours after which the plates were examined for any contaminants.
12 tubes per isolate for each of the antibiotics were placed into a test tube rack. 2 ml serum broth was dispensed into each of the tubes. 2 ml of the antibiotic were then added to the first tube in the respective row and a twofold dilution were made (32 μg/ml-0.0625 μg/ml). 20 μl of the bacteria was then added to 11 of the tubes. The 12th tube, i.e. negative control received neither antibiotic nor bacteria. The 11th tube i.e. positive control only received 20 μl bacteria. All the tubes were then incubated at 37° C. and the MIC read after 48 hours incubation

[2] = test system: Brachyspira hyodysenteriae (P18A); experiment: MIC by antibiotic dilution method in agar plates, control strain; conditions: Control P1 8A
Protocol: as §1

[3] = even at relatively low concentrations

Row | MIC ([1]; the fourth isolate) | MIC ([1]; three of the isolates tested) | Compound | preventing the growth of Brachyspira pilosicoli (Brachyspira pilosicoli; [3]) | MIC (Brachyspira pilosicoli; field strain 0P0204-10-97(4)) | MIC (Brachyspira pilosicoli; field strain P0098-10-97) | MIC (Brachyspira pilosicoli; field strain P0352-10-98) | MIC (Brachyspira pilosicoli; field strain P0525-01-98) | MIC (Brachyspira pilosicoli; field strain P0730-09-97) | MIC range (Brachyspira pilosicoli; field strains, with the exception of isolate P0204-10-97 (4)) | preventing the growth of Ornithobacterium rhinotracheale [1, 3] | concentration that inhibited the growth (MIC) ([1]; the isolates tested (four)) | MIC [2]
1 | – | – | CCC1OC(=O)CC(OC(C)=O)C(C)C(OC2OC(C)C(OC3CC(C)(O)C(OC(=O)CC(C)C)C(C)O3)C(N(C)C)C2O)C(CC=O)CC(C)C(=O)C=CC(C)=CC1COC1OC(C)C(O)C(OC)C1OC (stereo not drawn) [Aivlosin, 3-O-acetyl-4″-O-isovaleryl-tylosin] | particularly effective | <0.781 µg/mL | 25.0 µg/mL | 6.25 µg/mL | 6.25 µg/mL | 12.5 µg/mL | 6.25 to 25.0 µg/mL | particularly effective | 0.5 µg/mL | 12.5 µg/mL (≈ 12 µM)
2 | 8 µg/mL (≈ 9.2 µM) | 4 µg/mL (≈ 4.6 µM) | CC[C@H]1OC(=O)C[C@@H](O)[C@H](C)[C@@H](O[C@@H]2O[C@H](C)[C@@H](O)[C@H](N(C)C)[C@H]2O)[C@@H](CCN2C[C@H](C)C[C@H](C)C2)C[C@@H](C)C(=O)/C=C/C(C)=C/[C@@H]1CO[C@@H]1O[C@H](C)[C@@H](O)[C@@H](OC)[C@H]1OC [Pulmotil, Tilmicosin] | – | – | – | – | – | – | – | – | – | –
